{"source": "ChEMBL document CHEMBL3886721", "about": "“Thienopyrimidine compounds and use thereof” (2016)", "target": "T1, Gonadotropin-releasing hormone receptor (Macaca fascicularis, UniProt G7P5Q7)", "T1 sequence (G7P5Q7 whole entry)": "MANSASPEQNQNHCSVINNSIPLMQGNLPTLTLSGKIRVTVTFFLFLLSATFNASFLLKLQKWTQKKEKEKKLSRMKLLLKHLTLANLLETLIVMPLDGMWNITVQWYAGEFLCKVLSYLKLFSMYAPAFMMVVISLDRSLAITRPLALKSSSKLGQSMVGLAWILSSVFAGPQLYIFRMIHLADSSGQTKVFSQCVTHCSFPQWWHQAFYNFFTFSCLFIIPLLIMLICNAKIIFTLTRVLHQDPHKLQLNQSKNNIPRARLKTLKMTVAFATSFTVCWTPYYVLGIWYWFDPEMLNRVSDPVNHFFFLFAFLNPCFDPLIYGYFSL", "assay": "125I-Leuprorelin Binding Assay: The monkey and human membrane fractions prepared were diluted with the assay buffer to yield a 200 µg/ml dilution, each of which was then dispensed at 188 μl per tube. To a tube containing the cell membrane fraction of the CHO with monkey GnRH receptors expressed were added 2 μl of a solution of 20 mM compound in 60% DMSO and 10 μl of 38 nM 125I-leuprorelin. To a tube containing the cell membrane fraction of the CHO with human GnRH receptors expressed were added 2 μl of a solution of 2 mM compound in 60% DMSO and 10 μl of 38 nM 125I-leuprorelin. To determine maximum binding quantity, a reaction mixture containing 2 μl of 60% DMSO and 10 μl of 38 nM 125I-leuprorelin was prepared. To determine non-specific binding amount, a reaction mixture containing 2 μl of a solution of 100 μM leuprorelin in 60% DMSO and 10 μl of 38 nM 125I-leuprorelin was prepared."}
{"smiles": "CCOCCN(C)Cc1c(-c2ccc(NC(=O)NOC)cc2)sc2c1c(=O)n(-c1ccccn1)c(=O)n2Cc1c(F)cccc1F", "values": [{"measurement": "IC50", "result": 3, "unit": "nM"}]}
